The supplement of paper PMC10307832

How the values were obtained:
Assay in all cases: relative viability (nuclei count vs DMSO), 5 days (fraction); higher = more cells survive
Linsitinib + Crizotinib = compound: C[C@]1(O)C[C@@H](c2nc(-c3ccc4ccc(-c5ccccc5)nc4c3)c3c(N)nccn32)C1 [Linsitinib] + C[C@@H](Oc1cc(-c2cnn(C3CCNCC3)c2)cnc1N)c1c(Cl)ccc(F)c1Cl [Crizotinib] (partner 1 µM)
Summary of the method: (§1)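 Five library-drug doses in √10 steps were combined with a fixed anchor-drug dose, or a single drug was given alone, by pin tool to lung cancer cell lines in 1536-well plates the day after seeding. Nuclei were stained and counted after 5 days. Relative viability is the nuclei count in treated wells over that in vehicle wells, taken as the median of duplicate plates.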

Linsitinib + Pictilisib = compound: C[C@]1(O)C[C@@H](c2nc(-c3ccc4ccc(-c5ccccc5)nc4c3)c3c(N)nccn32)C1 [Linsitinib] + CS(=O)(=O)N1CCN(Cc2cc3nc(-c4cccc5[nH]ncc45)nc(N4CCOCC4)c3s2)CC1 [Pictilisib] (partner 1 µM)
Summary of the method: as §1

Linsitinib + Decitabine = compound: C[C@]1(O)C[C@@H](c2nc(-c3ccc4ccc(-c5ccccc5)nc4c3)c3c(N)nccn32)C1 [Linsitinib] + Nc1ncn([C@H]2C[C@H](O)[C@@H](CO)O2)c(=O)n1 [Decitabine] (partner 2 µM)
Summary of the method: as §1

Linsitinib + Luminespib = compound: C[C@]1(O)C[C@@H](c2nc(-c3ccc4ccc(-c5ccccc5)nc4c3)c3c(N)nccn32)C1 [Linsitinib] + CCNC(=O)c1noc(-c2cc(C(C)C)c(O)cc2O)c1-c1ccc(CN2CCOCC2)cc1 [Luminespib] (partner 0.01 µM)
Summary of the method: as §1

Cell Line	relative viability (Linsitinib + Crizotinib; first compound 0.01 µM)	relative viability (Linsitinib + Crizotinib; first compound 0.03162 µM)	relative viability (Linsitinib + Crizotinib; first compound 0.1 µM)	relative viability (Linsitinib + Crizotinib; first compound 0.3162 µM)	relative viability (Linsitinib + Crizotinib; first compound 1 µM)	relative viability (Linsitinib + Pictilisib; first compound 0.01 µM)	relative viability (Linsitinib + Pictilisib; first compound 0.03162 µM)	relative viability (Linsitinib + Pictilisib; first compound 0.1 µM)	relative viability (Linsitinib + Pictilisib; first compound 0.3162 µM)	relative viability (Linsitinib + Pictilisib; first compound 1 µM)	relative viability (Linsitinib + Decitabine; first compound 0.01 µM)	relative viability (Linsitinib + Decitabine; first compound 0.03162 µM)	relative viability (Linsitinib + Decitabine; first compound 0.1 µM)	relative viability (Linsitinib + Decitabine; first compound 0.3162 µM)	relative viability (Linsitinib + Decitabine; first compound 1 µM)	relative viability (Linsitinib + Luminespib; first compound 0.01 µM)	relative viability (Linsitinib + Luminespib; first compound 0.03162 µM)	relative viability (Linsitinib + Luminespib; first compound 0.1 µM)	relative viability (Linsitinib + Luminespib; first compound 0.3162 µM)	relative viability (Linsitinib + Luminespib; first compound 1 µM)
LOU-NH91	0.756	0.763	0.743	0.735	0.644	0.49	0.515	0.503	0.523	0.457	0.813	0.806	0.803	0.715	0.782	0.357	0.355	0.299	0.244	0.298
NCI-H2009	0.988	1.04	1.06	0.975	1.04	0.946	0.796	0.833	0.101	0.687	0.36	0.4	0.366	0.359	0.396	1.01	1.01	1.06	–	1.06
NCI-H358	0.661	0.676	0.588	0.448	0.415	0.317	0.232	0.333	0.261	0.281	0.242	0.354	0.256	0.208	0.222	0.365	0.367	0.299	0.333	0.194
NCI-H2126	0.972	1.06	0.988	0.841	0.903	0.489	0.486	0.459	0.389	0.359	0.6	0.675	0.574	0.544	0.577	0.883	0.841	0.912	0.838	0.522
ChaGo-K-1	1.08	1.07	1.14	0.812	1.04	0.809	0.665	0.576	0.317	0.666	0.504	0.519	0.49	–	0.51	0.644	0.535	0.544	0.699	0.728
NCI-H1437	0.897	0.75	0.993	0.853	0.972	0.449	0.53	0.455	0.467	0.57	0.541	0.551	0.555	0.4	0.599	1.1	1.12	1.22	1.1	1.19
SK-LU-1	0.805	0.752	0.859	–	0.993	0.54	0.548	0.706	–	0.592	0.605	0.635	0.637	0.624	0.602	0.212	–	0.203	0.208	0.215
NCI-H838	0.787	0.704	0.826	0.673	0.64	0.42	0.446	0.374	0.217	0.306	0.462	0.581	0.452	0.284	0.405	0.411	0.211	0.278	–	0.235
NCI-H1755	0.833	0.85	0.901	0.825	0.81	0.422	0.409	0.442	0.237	0.372	0.719	0.856	0.719	0.559	0.702	0.41	0.244	0.419	0.327	0.469
NCI-H1915	0.944	0.918	0.936	0.796	0.754	0.996	0.943	0.97	0.726	0.522	0.272	0.312	0.266	0.247	0.263	0.796	0.61	0.835	0.707	0.797
NCI-H2347	0.705	0.84	0.715	0.589	0.669	0.802	0.609	0.597	0.695	0.717	0.644	0.668	0.629	0.591	0.614	0.454	0.284	0.362	–	0.389
HARA	1.03	1.24	1.21	0.696	1.14	0.399	0.373	0.248	0.369	0.166	0.518	0.533	0.526	–	0.678	0.715	0.828	0.945	–	0.173
NCI-H2085	0.956	0.939	0.999	0.68	0.763	0.431	0.462	0.426	0.466	0.471	0.525	0.59	0.509	0.528	0.618	0.36	0.425	0.379	0.402	0.407
NCI-H650	0.736	0.907	0.857	–	0.703	0.875	0.876	0.953	–	0.814	0.313	0.396	0.287	–	0.306	0.774	0.919	0.877	0.66	0.669
NCI-H727	0.839	0.905	0.743	0.727	0.601	0.414	0.353	0.342	0.281	0.17	0.671	1.05	0.752	0.58	0.63	0.323	0.207	0.346	0.268	0.288
NCI-H1993	0.867	0.852	0.866	0.969	0.636	0.831	0.832	0.843	0.643	0.896	0.646	0.564	0.473	0.506	0.499	0.751	0.852	0.835	0.794	0.498
EMC-BAC-2	0.8	0.738	0.696	0.517	0.688	0.47	0.489	0.496	0.455	0.412	0.98	1.11	0.881	0.733	0.727	1.07	1.2	1.26	1.01	0.95
NCI-H2087	0.763	1.01	0.836	0.842	0.729	0.92	0.906	0.723	0.294	0.775	0.275	0.387	0.257	0.259	0.267	0.167	0.169	0.132	0.15	0.142
NCI-H441	0.872	0.902	0.76	0.552	0.579	0.51	0.683	0.498	0.413	0.412	0.246	0.26	0.223	0.212	0.257	0.296	0.327	0.211	0.245	0.281
LXF-289	0.789	0.885	0.807	0.671	0.792	0.76	0.875	0.738	0.539	0.592	0.366	0.481	0.382	0.333	0.39	0.759	0.669	0.729	–	0.544
NCI-H661	–	0.862	1.04	0.85	0.93	–	0.375	0.329	0.464	0.332	0.545	0.676	0.536	0.492	0.535	0.924	1.05	0.948	0.945	1.01
PC-3 [JPC-3]	1.05	0.967	0.974	0.879	0.84	0.804	0.777	0.665	0.517	0.52	0.822	0.902	0.91	0.77	0.814	0.716	0.69	0.764	0.669	0.712
NCI-H1651	0.874	0.93	0.803	0.735	0.862	0.505	0.569	0.475	0.377	0.508	0.316	0.744	0.518	0.516	0.597	0.754	0.903	0.801	0.621	0.682
NCI-H1355	0.974	0.997	0.888	0.79	0.664	0.433	0.437	0.343	0.228	0.359	0.378	0.353	0.334	0.309	0.317	0.761	0.685	0.618	0.616	0.587
LC-2-ad	0.479	0.566	0.451	0.357	0.311	0.423	0.369	0.409	0.396	0.269	0.776	0.719	0.864	0.726	0.742	1	1.07	0.971	0.873	0.877
NCI-H1944	1.05	1.21	1.17	0.926	0.892	0.33	0.354	0.344	0.349	0.299	0.426	0.53	0.422	0.398	0.341	0.755	0.793	0.727	0.637	0.532
HCC-827	0.997	1.03	0.932	–	0.948	1.07	1.19	1.11	0.88	1.12	0.165	0.427	0.287	–	0.34	0.733	0.599	0.648	–	0.657
